Source: patent US12612363B2, “Recrystallisation of 5-methoxy-N,N-dimethyltryptamine(5-MeO-DMT)” (GH RESEARCH IRELAND LIMITED, priority 2019, dated 2026)
In brackets after ≈: the same amount, converted by molar mass.

Assay: Solubility screen of 5-MeO-DMT in solvents at room temperature and reflux
Settings: for solubility: thermodynamic from solid
Method: A solubility screen of 5-MeO-DMT was performed on a number of solvents at both room temperature and reflux.

In the case of `COc1ccc2[nH]cc(CCN(C)C)c2c1` [5-MeO-DMT, 5-Methoxy-N,N-dimethyltryptamine], the solubility (2-methyltetrahydrofuran, organic solvent or mixture, 5-MeO-DMT Solubility Ambient, solvent 2-Methyltetrahydrofuran (2-MeTHF), ambient (room temperature)) was 250 mg/mL (≈ 1150 mM), the solubility (acetone, organic solvent or mixture, 5-MeO-DMT Solubility Ambient, solvent Acetone, ambient (room temperature)) was 530 mg/mL (≈ 2430 mM) and the solubility (ethanol, organic solvent or mixture, 5-MeO-DMT Solubility Ambient, solvent Ethanol, ambient (room temperature)) was 340 mg/mL (≈ 1560 mM). For the same molecule, the solubility (ethyl acetate, organic solvent or mixture, 5-MeO-DMT Solubility Ambient, solvent Ethyl Acetate, ambient (room temperature)) was 260 mg/mL (≈ 1190 mM), the solubility (heptanes, organic solvent or mixture, 5-MeO-DMT Solubility Ambient, solvent Heptanes, ambient (room temperature)) was less than 50 mg/mL and the solubility (heptanes, organic solvent or mixture, 5-MeO-DMT Solubility Reflux, solvent Heptanes, reflux) was less than 50 mg/mL. The “solubility (in words)” value (in MTBE at room temperature) was “not observed to be soluble”, the “solubility (in words)” value (in MTBE when the temperature of the solvent was increased) was “very soluble” and the “solubility (in words)” value (in heptanes) was “Poor solubility”. The “solubility (in words)” value (in water) was “Poor solubility”, the solubility (isopropanol, organic solvent or mixture, 5-MeO-DMT Solubility Ambient, solvent Isopropanol (IPA), ambient (room temperature)) was 180 mg/mL (≈ 825 mM) and the solubility (isopropyl acetate, organic solvent or mixture, 5-MeO-DMT Solubility Ambient, solvent Isopropyl acetate (IPAc), ambient (room temperature)) was 210 mg/mL (≈ 962 mM). For the same molecule, the solubility (methyl tert-butyl ether, organic solvent or mixture, 5-MeO-DMT Solubility Ambient, solvent Methyl tert-butyl ether (MTBE), ambient (room temperature)) was less than 50 mg/mL, the solubility (methyl tert-butyl ether, organic solvent or mixture, 5-MeO-DMT Solubility Reflux, solvent Methyl tert-butyl ether (MTBE), reflux) was 420 mg/mL (≈ 1920 mM) and the “5-MeO-DMT Solubility Ambient (vols.)” value (solvent 2-Methyltetrahydrofuran (2-MeTHF), ambient (room temperature)) was 4.0 vols. For the same molecule, the “5-MeO-DMT Solubility Ambient (vols.)” value (solvent Acetone, ambient (room temperature), volumes of solvent for complete dissolution of 200 mg) was 1.9 vols, the “5-MeO-DMT Solubility Ambient (vols.)” value (solvent Ethanol, ambient (room temperature)) was 2.9 vols and the “5-MeO-DMT Solubility Ambient (vols.)” value (solvent Ethyl Acetate, ambient (room temperature)) was 3.9 vols. For the same molecule, the “5-MeO-DMT Solubility Ambient (vols.)” value (solvent Heptanes, ambient (room temperature)) was greater than 20 vols, the “5-MeO-DMT Solubility Reflux (vols.)” value (solvent Heptanes, reflux) was greater than 20 vols and the “5-MeO-DMT Solubility Ambient (vols.)” value (solvent Isopropanol (IPA), ambient (room temperature)) was 5.6 vols. For the same molecule, the “5-MeO-DMT Solubility Ambient (vols.)” value (solvent Isopropyl acetate (IPAc), ambient (room temperature)) was 4.8 vols, the “5-MeO-DMT Solubility Ambient (vols.)” value (solvent Methyl tert-butyl ether (MTBE), ambient (room temperature)) was greater than 20 vols and the “5-MeO-DMT Solubility Reflux (vols.)” value (solvent Methyl tert-butyl ether (MTBE), reflux) was 2.4 vols. The “5-MeO-DMT Solubility Ambient (vols.)” value (solvent Toluene, ambient (room temperature)) was 5.1 vols, the “5-MeO-DMT Solubility Ambient (vols.)” value (solvent Water, ambient (room temperature)) was greater than 20 vols and the “5-MeO-DMT Solubility Reflux (vols.)” value (solvent Water, reflux) was greater than 20 vols. For the same molecule, the solubility (toluene, organic solvent or mixture, 5-MeO-DMT Solubility Ambient, solvent Toluene, ambient (room temperature)) was 200 mg/mL (≈ 916 mM), the solubility (water, 100 °C, 5-MeO-DMT Solubility Reflux, solvent Water, reflux) was less than 50 mg/mL and the solubility (water, 5-MeO-DMT Solubility Ambient, solvent Water, ambient (room temperature)) was less than 50 mg/mL.
